# Source: ChEMBL document CHEMBL1201862, “PubChem BioAssay data set” (2004)
# Activity calls are given as the source filed them.
# Tests used:
# [1] = biological target: FAD-linked sulfhydryl oxidase ALR (Homo sapiens, UniProt P55789); experiment: ALR-catalysed DTT oxidation blockers – biochemical, H2O2 detection, luminescence, cherry-pick, dose response (AID 493248)
# [2] = NIH-3T3 fibroblast cytotoxicity, dose response, cytotoxicity control, cell-based, fluorescence, Alamar Blue, secondary assay (AID 2327); type: functional;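 also: NIH-3T3 mouse fibroblasts cultured with fluconazole at 8 µg/mL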
# [3] = fluconazole-exposed Candida albicans growth modulators – fluorescence, retest, confirmation (AID 2467); type: functional, cell-based
# [4] = biological target: T1, Polyadenylate-binding protein 1 (Homo sapiens, UniProt P11940); experiment: MLLE domain peptide-binding blockers, IC50 – biochemical, fluorescence polarization, FITC-PAM2 peptide, dose response (AID 602259); type: functional; conditions: read-out: IC50_Mean
# T1 sequence (P11940 whole entry, the tested form may be a part): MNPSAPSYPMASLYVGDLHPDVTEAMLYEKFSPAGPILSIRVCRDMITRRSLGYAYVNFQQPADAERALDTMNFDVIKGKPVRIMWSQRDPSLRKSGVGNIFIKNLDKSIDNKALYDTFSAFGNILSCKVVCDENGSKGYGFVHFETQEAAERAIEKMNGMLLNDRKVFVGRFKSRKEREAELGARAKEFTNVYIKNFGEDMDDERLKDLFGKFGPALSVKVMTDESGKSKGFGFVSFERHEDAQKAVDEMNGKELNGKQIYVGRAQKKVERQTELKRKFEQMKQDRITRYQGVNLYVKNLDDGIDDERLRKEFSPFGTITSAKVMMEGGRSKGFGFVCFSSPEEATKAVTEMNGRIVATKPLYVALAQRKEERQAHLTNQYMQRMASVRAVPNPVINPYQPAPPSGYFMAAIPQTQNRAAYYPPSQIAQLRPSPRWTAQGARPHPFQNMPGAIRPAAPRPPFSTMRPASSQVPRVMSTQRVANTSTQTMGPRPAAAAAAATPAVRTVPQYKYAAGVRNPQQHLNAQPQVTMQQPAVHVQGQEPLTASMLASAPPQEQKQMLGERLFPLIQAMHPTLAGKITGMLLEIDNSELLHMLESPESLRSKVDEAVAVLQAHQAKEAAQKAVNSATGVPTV
# [5] = biological target: T1, Polyadenylate-binding protein 1; experiment: MLLE binding blockers, Cy5 peptide tracer – biochemical, fluorescence polarization, Cy5-PAM2 peptide, secondary, miRNA deadenylation inhibitor project, dose response (AID 602260); type: functional; conditions: read-out: IC50_Mean
# [6] = viability of PTEN-deleted HCT116 cells – cell-based, HCT116 PTEN knockout, dose response (AID 1047); type: functional;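 also: HCT116 colon tumor cells with PTEN knocked out; cells exposed to compound for 60 hours before readout; potency for loss of cell viability measured by luminescence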
# [7] = system: Streptococcus sp. 'group A'; experiment: Streptococcus pyogenes SK(-)GAS viability under kanamycin – luminescence, BacTiterGlo, confirmation, counter-screen for streptokinase expression inhibitor project, dose response (AID 1900); type: functional, organism-based
# [8] = system: Streptococcus; experiment: GAS UMAA2166 growth inhibition – luminescence, BacTiterGlo, counter-screen for streptokinase expression inhibitor project, dose response (AID 1915); type: functional, organism-based;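 also: potency for reduction of bacterial viability or growth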
# [9] = viability of HCT116 lacking mutant beta-catenin – cell-based, human colon tumor, dose response (AID 1045); type: functional;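 also: HCT116 colon tumor cells with beta catenin knocked out; cells exposed to compound for 60 hours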
# [10] = biological target: T2, Ubiquitin-conjugating enzyme E2 N (Homo sapiens, UniProt P61088); type: functional;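 also: Dose-response confirmation in a TR-FRET assay detecting UBC13-driven polyubiquitin chain formation, inhibition measured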
# T2 sequence (P61088 whole entry): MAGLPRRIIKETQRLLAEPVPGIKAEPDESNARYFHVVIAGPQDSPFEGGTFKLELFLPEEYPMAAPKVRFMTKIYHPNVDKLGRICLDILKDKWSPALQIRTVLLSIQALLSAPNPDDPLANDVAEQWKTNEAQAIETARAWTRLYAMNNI
# [11] = Luminescence Cell-Based Dose Response HTS to Identify Activators of Luciferase Translation or Activity in H4 […] Cells. [Related pubchem assays: 1829 (Project Summary), 1814 (Primary HTS)]; type: functional
# [12] = system: H4; experiment: Luminescence Cell-Based Dose Response HTS to Identify Activators of 5'UTR Stem-Loop Driven Prion Protein mRNA Translation in H4 Neuroglioblastoma Cells. [Related pubchem assays: 1829 (Project Summary), 1814 (Primary HTS)]; type: functional; conditions: Homo sapiens
# [13] = Luminescence Cell-Based Dose Confirmation HTS to Identify Activators of 5'UTR Stem-Loop Driven Alpha-Synuclein mRNA Translation in H4 Neuroglioblastoma Cells. [Related pubchem assays: 1829 (Project Summary), 1814 (Primary HTS)]; type: functional
# [14] = non-specific 3'UTR reporter inhibition in Clone20-Shn3RL – cell-based, Renilla luciferase, cherry-picked, counter-screen for Shn3 inhibitor project, dose response (AID 624133); type: functional
# [15] = Luminescence Cell-Based Dose Response HTS to Identify Inhibitors of 5'UTR Stem-Loop Driven Prion Protein mRNA Translation in H4 Neuroglioblastoma Cells. [Related pubchem assays: 1827 (Project Summary), 1813 (Primary HTS)]; type: functional
# [16] = alpha-synuclein stem-loop luciferase translation blockers – H4 neuroglioma cells, luminescence, confirmation (AID 1988); type: functional, cell-based
# [17] = luciferase reporter signal suppression in cells – H4 neuroglioma cells, luminescence, dose response (AID 1990); type: functional, cell-based
# FAD-linked sulfhydryl oxidase ALR, sequence (P55789 whole entry): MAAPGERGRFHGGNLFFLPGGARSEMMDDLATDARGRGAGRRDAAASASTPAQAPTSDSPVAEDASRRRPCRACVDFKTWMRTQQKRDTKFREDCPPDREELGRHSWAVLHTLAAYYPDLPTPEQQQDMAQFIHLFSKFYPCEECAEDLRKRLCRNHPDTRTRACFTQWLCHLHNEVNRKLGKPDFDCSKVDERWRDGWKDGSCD
smiles,measurement,setting,value
COc1cccc(N2C(=O)CC(N3CCc4ccccc43)C2=O)c1 (stereo unspecified),AC50,[1],1.21 µM (active)
CC(C)NC(=S)N/N=C/c1ccc(C(C)(C)C)cc1,EC50,[2],91.3 µM (inconclusive)
same,EC50,[3],> 38 µM (not active)
O=C(NNC(=O)c1ccccc1O)c1ccc(Cl)c(S(=O)(=O)N2CCCCC2)c1,AC50,[1],56.4 µM (active)
O=C(c1cccc(F)c1)N1CCC(c2nc3ccccc3s2)CC1,AC50,[1],0.433 µM (active)
CCOC(=O)c1nc(Nc2ccc(C)cc2)c2ccccc2n1,IC50,[4],> 66 µM (inactive)
same,IC50,[5],> 66 µM (inactive)
O=C(O/N=C1/CCSc2ccccc21)c1ccc(F)cc1,EC50,[2],30.1 µM (active)
same,EC50,[3],> 38 µM (not active)
Cc1ccc(NC(=S)c2nc3ccccc3[nH]2)cc1,EC50,[6],26.3 µM (active)
same,EC50,[7],3.7 µM (active)
same,EC50,[2],> 160 µM (inactive)
same,EC50,[8],7.64 µM (active)
same,EC50,[3],> 38 µM (not active)
same,EC50,[9],19.2 µM (active)
Cc1nn(C)c(C(=O)NC(=S)Nc2ccc([N+](=O)[O-])cc2)c1Cl,IC50,[4],> 66 µM (inactive)
same,IC50,[5],> 66 µM (inactive)
CC[C@@H](C)[C@@H]1CN([C@@H](CN2CCC[C@H]2CN2C(N)=NC[C@@H]2Cc2ccccc2)C(C)C)C(=N)N1CCCC1CCCC1,IC50,[10],> 20 µM (inactive)
O=C(c1oc2ccccc2c1CSCc1ccccc1)N1CCN(c2ncccn2)CC1,IC50,[4],38.5 µM (inactive)
same,IC50,[5],> 66 µM (inactive)
Cc1cc(C)n(N=C(S)NC2CCCC2)c(=O)c1C#N,IC50,[4],> 66 µM (inactive)
same,IC50,[5],> 66 µM (inactive)
Cc1ccc2[nH]c(CCc3ccc(N)cc3)nc2c1,AC50,[1],0.018 µM (active)
CCN(CC)c1ccc(/C=N/NC(=O)Nc2nonc2N)cc1,AC50,[1],1.38 µM (active)
same,EC50,[11],7.18 µM (active)
same,EC50,[12],30.9 µM (active)
same,EC50,[13],98.8 µM (active)
CC(Cc1cccs1)NC(=O)Nc1ccc(F)cc1 (stereo unspecified),AC50,[14],28.8 µM (active)
CC(=O)n1cc([C@H]2C=C(C(=O)Nc3ccccc3)O[C@@H](OCCCCO)C2)c2ccccc21,IC50,[10],> 20 µM (inactive)
COc1cccc(C(=O)NC2=NCCS2)c1OC,IC50,[4],> 66 µM (inactive)
same,IC50,[5],> 66 µM (inactive)
CC(C)Oc1ccc(Cl)cc1Nc1nc(NCCO)nc(N2CCCC2)n1,IC50,[10],> 20 µM (inactive)
N#Cc1cnn(-c2ccccc2)c1NC(=O)CN1CCN(c2ccccc2)CC1,AC50,[1],13.4 µM (active)
CCOC(=O)c1c(NC(=O)C2Cc3ccccc3C(=O)O2)sc2c1CCCC2 (stereo unspecified),EC50,[2],> 160 µM (inactive)
same,EC50,[3],> 38 µM (not active)
CCOC(=O)c1c(CN2CCN(c3ccccc3)CC2)oc2ccc(O)cc12,IC50,[10],> 20 µM (inactive)
COc1ccc(-c2n(C)c3ccccc3[n+]2CC(=O)OC2CC(C)CCC2C(C)C)cc1 (stereo unspecified),EC50,[15],10.9 µM (active)
same,EC50,[16],8.61 µM (active)
same,EC50,[2],17.4 µM (inconclusive)
same,EC50,[3],0.25 µM (active)
same,EC50,[17],8.73 µM (active)
CC(C)C[C@H](NC(=O)c1[nH]cnc1C(=O)N[C@@H](CCCCN)C(=O)OC(C)(C)C)C(=O)OC(C)(C)C,IC50,[10],> 20 µM (inactive)
COc1ccc(NC(=O)CSc2nnc(-c3ccccc3C)n2N)cc1,IC50,[4],> 66 µM (inactive)
same,IC50,[5],> 66 µM (inactive)
CC(C(=O)NC1C(=O)N2C(C(=O)O)=C(CSc3nnnn3C)CSC12)n1cc(Cl)cn1 (stereo unspecified),EC50,[7],0.161 µM (active)
same,IC50,[4],> 66 µM (inactive)
same,IC50,[5],> 66 µM (inactive)
same,EC50,[8],0.343 µM (active)
O=C(CSc1nc(-c2ccccc2)cs1)Nc1nccs1,EC50,[2],> 160 µM (inactive)
same,EC50,[3],> 38 µM (not active)
CN(C)c1ccc(/C=N/NC(=O)CCc2c[nH]c3ccccc23)cc1,AC50,[1],2.11 µM (active)
OCC(O)CN=C(S)NC1CCCCC1 (stereo unspecified),IC50,[4],> 66 µM (inactive)
same,IC50,[5],> 66 µM (inactive)
OCCNc1nc(Nc2cc(Cl)ccc2OC2CCCC2)nc(N2CCCC2)n1,IC50,[10],> 20 µM (inactive)
CCn1c(C)nc2cc(C(=O)NN=C(S)Nc3ccc(Cl)cc3Cl)ccc21,EC50,[2],> 160 µM (inactive)
same,EC50,[3],6.98 µM (active)
